Assay results published in ChEMBL document CHEMBL4808209 (J Med Chem, 2021).
pIC50: −log10 of the molar value. Active and inactive are the calls of the source. The calls are words filed in the database; no cut-off is given here.

Experiments:
CYP3A4 = CYP3A4 (Homo sapiens, UniProt P08684); assay: Inhibition of CYP3A4 in human liver microsomes using midazolam or testosterone as substrate substrate in presence of NADPH by LC-MS/MS analysis; format: ADME; conditions: human, liver microsomes, probe midazolam or testosterone
CYP3A4, sequence (P08684 whole entry): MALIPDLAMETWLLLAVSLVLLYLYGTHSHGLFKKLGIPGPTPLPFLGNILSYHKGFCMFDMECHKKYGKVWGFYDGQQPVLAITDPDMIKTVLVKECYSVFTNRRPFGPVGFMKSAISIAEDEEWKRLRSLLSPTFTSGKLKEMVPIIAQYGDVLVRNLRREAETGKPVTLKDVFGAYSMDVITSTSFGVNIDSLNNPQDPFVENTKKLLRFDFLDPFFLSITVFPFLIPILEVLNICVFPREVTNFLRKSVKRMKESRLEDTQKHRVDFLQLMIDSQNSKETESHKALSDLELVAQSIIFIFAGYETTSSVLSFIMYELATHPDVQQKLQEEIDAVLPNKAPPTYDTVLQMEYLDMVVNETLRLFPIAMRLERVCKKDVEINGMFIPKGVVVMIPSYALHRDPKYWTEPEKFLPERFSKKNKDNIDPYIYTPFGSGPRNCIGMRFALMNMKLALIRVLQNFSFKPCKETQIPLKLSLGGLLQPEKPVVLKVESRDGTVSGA

[1] = Clearance in Sprague-Dawley rat at 2 mg/kg, po or 1 mg/kg, iv administered as cassette dose measured after 24 hrs relative to hepatic blood flow; format: ADME, organism-based; conditions: in vivo
Nitric oxide synthase 1 = Nitric oxide synthase 1 (Homo sapiens, UniProt P29475); assay: Inhibition of NOS (unknown origin) at 0.1 to 1 uM; conditions: dose 0.1-1 µM
Nitric oxide synthase 1, sequence (P29475 whole entry): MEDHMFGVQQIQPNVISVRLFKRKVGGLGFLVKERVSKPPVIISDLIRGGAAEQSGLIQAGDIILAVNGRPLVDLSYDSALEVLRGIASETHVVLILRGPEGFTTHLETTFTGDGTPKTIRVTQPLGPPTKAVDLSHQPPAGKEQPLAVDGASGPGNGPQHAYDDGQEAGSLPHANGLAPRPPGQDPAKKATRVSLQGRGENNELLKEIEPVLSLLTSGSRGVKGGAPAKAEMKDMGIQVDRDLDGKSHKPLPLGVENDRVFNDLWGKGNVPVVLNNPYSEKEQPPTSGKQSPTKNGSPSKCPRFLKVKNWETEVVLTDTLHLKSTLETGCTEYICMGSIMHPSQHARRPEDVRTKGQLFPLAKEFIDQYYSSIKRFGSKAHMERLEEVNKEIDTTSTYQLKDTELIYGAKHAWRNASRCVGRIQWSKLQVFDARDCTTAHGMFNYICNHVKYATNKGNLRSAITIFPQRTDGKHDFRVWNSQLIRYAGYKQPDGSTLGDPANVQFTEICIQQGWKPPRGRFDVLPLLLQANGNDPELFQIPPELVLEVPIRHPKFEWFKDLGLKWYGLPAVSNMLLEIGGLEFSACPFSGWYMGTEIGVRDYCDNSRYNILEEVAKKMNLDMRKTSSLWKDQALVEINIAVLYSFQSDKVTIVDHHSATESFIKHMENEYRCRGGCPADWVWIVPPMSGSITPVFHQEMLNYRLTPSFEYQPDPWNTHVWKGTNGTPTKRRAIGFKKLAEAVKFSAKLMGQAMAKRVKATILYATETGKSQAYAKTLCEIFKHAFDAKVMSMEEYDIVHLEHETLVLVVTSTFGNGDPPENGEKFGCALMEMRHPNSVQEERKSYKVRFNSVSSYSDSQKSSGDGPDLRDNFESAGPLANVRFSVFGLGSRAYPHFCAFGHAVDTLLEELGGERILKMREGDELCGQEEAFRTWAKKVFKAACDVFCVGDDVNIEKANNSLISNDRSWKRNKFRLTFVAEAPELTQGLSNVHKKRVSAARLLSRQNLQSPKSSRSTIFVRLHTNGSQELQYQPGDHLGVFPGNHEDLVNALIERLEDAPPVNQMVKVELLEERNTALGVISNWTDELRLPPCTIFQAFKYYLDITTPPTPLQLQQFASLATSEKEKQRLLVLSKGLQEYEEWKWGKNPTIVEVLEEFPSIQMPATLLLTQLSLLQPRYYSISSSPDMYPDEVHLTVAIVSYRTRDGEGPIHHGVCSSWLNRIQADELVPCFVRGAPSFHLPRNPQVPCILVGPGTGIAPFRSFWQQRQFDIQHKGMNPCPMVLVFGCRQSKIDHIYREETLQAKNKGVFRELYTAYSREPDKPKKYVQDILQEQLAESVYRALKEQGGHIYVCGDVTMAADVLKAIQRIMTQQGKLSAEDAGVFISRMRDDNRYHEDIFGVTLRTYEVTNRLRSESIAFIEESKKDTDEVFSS

CYP2C8 = CYP2C8 (Homo sapiens, UniProt P10632); assay: Inhibition of CYP2C8 in human liver microsomes using amodiaquine as substrate substrate in presence of NADPH by LC-MS/MS analysis; format: ADME; conditions: probe amodiaquine
CYP2C8, sequence (P10632 whole entry): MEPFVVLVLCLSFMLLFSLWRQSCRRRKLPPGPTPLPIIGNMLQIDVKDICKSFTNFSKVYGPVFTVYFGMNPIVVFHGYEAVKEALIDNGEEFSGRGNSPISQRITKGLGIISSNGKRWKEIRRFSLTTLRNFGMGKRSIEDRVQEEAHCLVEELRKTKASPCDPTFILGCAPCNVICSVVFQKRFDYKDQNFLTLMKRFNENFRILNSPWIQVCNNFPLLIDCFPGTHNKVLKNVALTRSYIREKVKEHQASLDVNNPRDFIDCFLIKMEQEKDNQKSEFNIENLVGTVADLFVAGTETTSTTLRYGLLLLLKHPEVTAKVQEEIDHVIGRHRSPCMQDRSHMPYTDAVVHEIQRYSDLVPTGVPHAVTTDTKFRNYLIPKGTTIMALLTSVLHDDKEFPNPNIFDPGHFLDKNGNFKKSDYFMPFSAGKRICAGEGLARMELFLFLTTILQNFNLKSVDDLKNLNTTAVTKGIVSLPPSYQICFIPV

[2] = Clearance in cynomolgus monkey at 2 mg/kg, po or 0.5 mg/kg, iv administered as cassette dose measured after 24 hrs relative to hepatic blood flow; format: ADME, organism-based, Macaca fascicularis; conditions: in vivo
KATO III = assay: Antitumor activity against human KATO III stomach cancer cell line xenografted in SCID mouse assessed as tumor growth inhibition at 0.3 mg/kg, po administered once daily for 10 days; format: functional, organism-based; conditions: time 10.0 day
[3] = target: Voltage-gated inwardly rectifying potassium channel KCNH2 (Homo sapiens, UniProt Q12809); assay: Inhibition of human ERG at 0.1 to 1 uM; conditions: dose 0.1-1 µM
Voltage-gated inwardly rectifying potassium channel KCNH2, sequence (Q12809 whole entry): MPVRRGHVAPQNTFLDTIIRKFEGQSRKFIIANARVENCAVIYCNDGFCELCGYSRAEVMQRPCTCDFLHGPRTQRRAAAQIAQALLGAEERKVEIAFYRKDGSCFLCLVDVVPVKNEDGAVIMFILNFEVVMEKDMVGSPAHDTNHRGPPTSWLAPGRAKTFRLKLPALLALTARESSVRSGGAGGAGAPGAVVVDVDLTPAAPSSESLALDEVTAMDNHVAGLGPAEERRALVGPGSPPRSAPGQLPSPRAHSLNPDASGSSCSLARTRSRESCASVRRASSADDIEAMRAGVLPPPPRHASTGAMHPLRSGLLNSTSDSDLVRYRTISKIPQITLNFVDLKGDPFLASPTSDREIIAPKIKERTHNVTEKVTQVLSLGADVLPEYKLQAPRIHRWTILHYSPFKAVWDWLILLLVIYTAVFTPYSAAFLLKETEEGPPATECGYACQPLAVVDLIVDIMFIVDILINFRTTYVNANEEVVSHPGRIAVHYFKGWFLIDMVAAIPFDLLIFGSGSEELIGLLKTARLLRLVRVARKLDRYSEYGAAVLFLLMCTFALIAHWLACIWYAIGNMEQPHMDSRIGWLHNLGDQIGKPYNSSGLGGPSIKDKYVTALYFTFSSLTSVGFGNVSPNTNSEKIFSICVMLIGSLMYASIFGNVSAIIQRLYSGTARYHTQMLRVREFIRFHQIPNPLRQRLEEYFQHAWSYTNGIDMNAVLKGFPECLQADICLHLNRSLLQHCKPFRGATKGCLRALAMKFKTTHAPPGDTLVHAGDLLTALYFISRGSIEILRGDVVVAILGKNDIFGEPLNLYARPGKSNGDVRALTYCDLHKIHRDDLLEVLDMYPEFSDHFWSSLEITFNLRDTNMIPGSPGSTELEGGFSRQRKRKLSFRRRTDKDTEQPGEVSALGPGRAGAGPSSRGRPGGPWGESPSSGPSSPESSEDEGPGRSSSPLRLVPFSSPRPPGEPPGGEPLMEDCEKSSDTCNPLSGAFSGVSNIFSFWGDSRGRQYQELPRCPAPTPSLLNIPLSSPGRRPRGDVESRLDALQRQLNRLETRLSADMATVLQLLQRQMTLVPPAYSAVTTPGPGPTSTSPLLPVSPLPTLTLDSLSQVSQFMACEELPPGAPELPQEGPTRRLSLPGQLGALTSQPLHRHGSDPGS

Mu-type opioid receptor = Mu-type opioid receptor (Homo sapiens, UniProt P35372); assay: Inhibition of human mu opioid receptor at 0.1 to 1 uM; conditions: dose 0.1-1 µM
Mu-type opioid receptor, sequence (P35372 whole entry): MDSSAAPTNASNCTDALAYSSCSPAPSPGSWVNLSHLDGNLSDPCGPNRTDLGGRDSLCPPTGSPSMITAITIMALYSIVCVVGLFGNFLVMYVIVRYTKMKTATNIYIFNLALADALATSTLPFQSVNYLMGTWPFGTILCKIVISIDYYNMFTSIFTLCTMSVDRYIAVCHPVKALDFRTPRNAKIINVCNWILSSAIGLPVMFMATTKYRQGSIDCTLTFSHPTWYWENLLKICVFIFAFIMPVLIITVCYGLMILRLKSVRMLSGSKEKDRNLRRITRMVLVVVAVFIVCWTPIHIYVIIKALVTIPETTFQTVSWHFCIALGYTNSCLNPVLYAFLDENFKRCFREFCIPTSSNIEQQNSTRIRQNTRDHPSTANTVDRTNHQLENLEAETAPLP

D(2) dopamine receptor = D(2) dopamine receptor (Homo sapiens, UniProt P14416); assay: Inhibition of human dopamine D2S receptor at 0.1 to 1 uM; conditions: dose 0.1-1 µM
D(2) dopamine receptor, sequence (P14416 whole entry): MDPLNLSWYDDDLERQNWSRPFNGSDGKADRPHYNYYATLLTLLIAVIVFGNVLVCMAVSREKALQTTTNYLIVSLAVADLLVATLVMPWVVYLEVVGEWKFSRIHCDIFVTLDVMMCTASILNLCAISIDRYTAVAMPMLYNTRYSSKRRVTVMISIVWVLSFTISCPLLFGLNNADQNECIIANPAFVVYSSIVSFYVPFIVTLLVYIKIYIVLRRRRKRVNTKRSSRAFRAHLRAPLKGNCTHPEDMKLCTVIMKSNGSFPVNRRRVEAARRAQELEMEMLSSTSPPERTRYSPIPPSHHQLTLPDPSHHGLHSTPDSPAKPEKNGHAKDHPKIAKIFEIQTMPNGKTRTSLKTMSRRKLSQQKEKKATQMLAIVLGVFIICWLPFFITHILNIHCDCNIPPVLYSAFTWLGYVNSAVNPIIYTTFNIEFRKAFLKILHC

[4] = tested on: GABA-A receptor; anion channel; assay: Inhibition of GABA A receptor (unknown origin) at 0.1 to 1 uM; format: protein-complex assay; conditions: human, dose 0.1-1 µM

Structure (SMILES): CCN1C(=O)N(c2c(F)c(OC)cc(OC)c2F)Cc2cnc3[nH]c(CN4CCOCC4)cc3c21 [PEMIGATINIB]
- pIC50 (CYP3A4): < 4.60
- CL [1]: 31%
- inhibition (INH) (Nitric oxide synthase 1): Not Active
- pIC50 (CYP2C8): < 4.60
- CL [2]: 8%
- TGI (KATO III): Active
- inhibition (INH) [3]: Not Active
- inhibition (INH) (Mu-type opioid receptor): Not Active
- inhibition (INH) (D(2) dopamine receptor): Not Active
- inhibition (INH) [4]: Not Active
